In patent publication US6207399A, “Methods of determining endogenous thrombin potential (ETP) and thrombin substrates for use in said methods” (Hemker; Hendrik Coenraad, priority 1995, dated 2001):
Where two headings read alike, the source gives them in different places. Values belong to the compound of their own block, whether it stands above or below them. Square brackets hold non-standard residues; d marks the D form. Peptide text beside a SMILES is read from it. * marks the point of attachment. pNA = O=[N+]([O-])c1ccc(N*)cc1; Nle = CCCC[CH](N)C(=O)O; Pip = O=C(O)[CH]1CCCCN1; Boc = CC(C)(C)OC(=O)*; Bz = O=C(c1ccccc1)*; CH2Cl = ClC*

What was measured:
[1] = molecular target: T1, factor Xa (Homo sapiens, UniProt P00742); assay: Kinetic parameters of hydrolysis of the substrates by factor Xa in buffer A at 37° C. (Example 4, Table 3); type: biochemical; conditions: buffer A, 37° C., 50 nM factor Xa
T1 construct: human factor Xa samples; gift of Dr. T. Lindhout (University of Limburg, Maastricht)
Summary of the method: (§1)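 p-Nitroaniline release followed at 405 nm in buffer A at 37 °C, with at least six substrate levels of 200–2000 μM. Thrombin at 0.5–50 nM, factor Xa at 50 nM; Km and kcat from initial velocities by linear regression on Michaelis-Menten.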

[2] = molecular target: T2, thrombin (Homo sapiens, UniProt P00734); assay: Kinetic parameters of hydrolysis of the substrates by thrombin in buffer A at 37° C. (Example 4, Table 3); type: biochemical; set-up: Pure human α-thrombin; gift of Dr. T. Lindhout (University of Limburg, Maastricht); conditions: buffer A, 37° C.
Summary of the method: as §1

[3] = molecular target: T1, factor Xa; assay: Kinetics of hydrolysis of substrates by human factor Xa in buffer A at 37° C. (Example 2, Table 2); type: biochemical
Method: (§2) Kinetic parameters: The hydrolysis experiments were run in buffer A at 37° C. The liberation of p-nitroaniline was monitored at 405 nm in a dual wavelength (405-546 nm) spectrophotometer made in our workshop, using a personal computer for data recording. In a polystyrene microcuvette (total volume 500 μL), buffer A and substrate solution were added to obtain a final substrate concentration between 1 to 2000 μM. After 5 min of incubation at 37° C., enzyme solution was added to achieve a final concentration between 0.5 to 100 nM. The measurement was carried out at 37° C. in a thermostated cuvette-holder. The Michaelis constant (Km) and the catalytic constant (kcat) were obtained by measuring initial reaction velocities at different substrate concentrations. The data obtained were fitted by linear regression on the Michaelis-Menten equation.
(§3) Kinetic parameters: In a preliminary experiment, the substrate was hydrolyzed under the following conditions: enzyme concentration: 10 to 20 nM, substrate concentration: 200 μM in buffer A to get an impression of the initial velocity. […] The results are given in table 1 and 2 for thrombin and factor Xa respectively. The Km and kcat for each substrate were determined from the initial velocities measured for at least six substrate concentrations in the concentration range as given. The enzyme concentration used gives a good signal to noise ratio. The data given are obtained from one or two experiments. The data from table 1 and 2 were only used as the first selection criterion to get a rough impression of the hydrolysis behaviour. Notwithstanding the preliminary character of the measurement it was helpful in the design of the substrates of our interest.

[4] = molecular target: T3, human α-thrombin (Homo sapiens, UniProt P00734); assay: Kinetics of hydrolysis of substrates by human α-thrombin in buffer A at 37° C. (Example 2, Table 1); type: biochemical
T3 construct: Pure human α-thrombin; gift of Dr. T. Lindhout (University of Limburg, Maastricht)
Method: as §2, §3

[5] = test system: Factor Xa; conditions: Serbio patent EP-B-0 280 610; cited from earlier work
[6] = test system: thrombin; conditions: Serbio patent EP-B-0 280 610; cited from earlier work
[7] = test system: protein C; conditions: Serbio patent EP-B-0 280 610; cited from earlier work
[8] = test system: plasmin; conditions: Serbio patent EP-B-0 280 610; cited from earlier work
[9] = Water solubility of the substrates; type: physicochemical
[10] = molecular target: T1, factor Xa; conditions: entry marked ^a (Hemker et al. 1993, footnote of Table 1); cited from earlier work
[11] = molecular target: T1, factor Xa; conditions: SQ68 reference, same values as Table 2 entry 17; cited from earlier work
[12] = molecular target: T3, human α-thrombin; conditions: from Hemker H.C. et al. (1993); cited from earlier work
[13] = molecular target: T2, thrombin; set-up: Pure human α-thrombin; gift of Dr. T. Lindhout (University of Limburg, Maastricht); conditions: SQ68 reference, same values as Table 1 entry 17 (from Hemker et al. 1993); cited from earlier work
[14] = test system: thrombin; conditions: Svendsen et al; cited from earlier work
[15] = molecular target: T2, thrombin; conditions: Angliker et al; cited from earlier work

T1 sequence (P00742 41-179 limits assumed): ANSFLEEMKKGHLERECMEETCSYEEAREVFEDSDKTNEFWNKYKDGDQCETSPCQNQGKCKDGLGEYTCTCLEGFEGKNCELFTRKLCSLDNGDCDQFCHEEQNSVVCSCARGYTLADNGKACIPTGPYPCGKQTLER
T1 sequence (P00742 235-488 limits assumed): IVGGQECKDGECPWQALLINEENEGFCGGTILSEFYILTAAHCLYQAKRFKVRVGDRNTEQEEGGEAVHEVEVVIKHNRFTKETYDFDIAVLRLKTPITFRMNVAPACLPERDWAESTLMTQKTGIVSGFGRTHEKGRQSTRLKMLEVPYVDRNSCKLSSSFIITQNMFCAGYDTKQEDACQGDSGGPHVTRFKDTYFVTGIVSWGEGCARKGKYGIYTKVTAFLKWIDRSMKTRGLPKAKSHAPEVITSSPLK

Factor Xa kcat [1]: 3.51 s⁻¹
Factor Xa kcat /Km [1]: 1310 M/s
Km [1]: 2680 µM
Km [2]: 244 µM
Thrombin kcat [2]: 11.2 s⁻¹
Thrombin kcat /Km [2]: 45900 M/s
Km [3]: 959 µM
kcat [3]: 1.90 s⁻¹
kcat /Km [3]: 1980 M/s
Km [4]: 244 µM
kcat [4]: 11.2 s⁻¹
kcat /Km [4]: 45900 M/s
Compound: CC(C)[C@H](NC(=O)CNC(=O)OC(C)(C)C)C(=O)N[C@@H](CCCNC(=N)N)C(=O)Nc1ccc([N+](=O)[O-])cc1.Cl [Boc-Gly-Val-Arg-pNA.HCl] (Boc-Gly-Val-Arg-pNA)

Compound: COC(=O)CC(=O)N1CCC[C@H]1C(=O)N[C@@H](CCCNC(=N)N)C(=O)Nc1ccc([N+](=O)[O-])cc1 [CH3 O--CO--CH2 --CO-L-Pro-L-Arg-pNA]
rate of hydrolysis for Factor Xa [5]: 0.14
rate of hydrolysis for thrombin [6]: 0.68
rate of hydrolysis for protein C [7]: 0.83
rate of hydrolysis for plasmin [8]: 0.230

water solubility [9]: restricted water solubility
Compound: CCCCC(NC(=O)C1CCCCN1C(=O)C(N)Cc1ccccc1)C(=O)Nc1ccc([N+](=O)[O-])cc1.Cl (centres unmarked) [Substrate 6] (H-Phe-[Pip]-[Nle]-pNA; configuration not given here)

Factor Xa kcat [1]: 10.1 s⁻¹
Factor Xa kcat /Km [1]: 2470 M/s
Km [1]: 4080 µM
Km [2]: 1010 µM
Thrombin kcat [2]: 14.4 s⁻¹
Thrombin kcat /Km [2]: 14300 M/s
Km [3]: 2570 µM
kcat [3]: 6.42 s⁻¹
kcat /Km [3]: 2500 M/s
Km [4]: 1010 µM
kcat [4]: 14.4 s⁻¹
kcat /Km [4]: 14300 M/s
Compound: COC(=O)CC(=O)N[C@H](C(=O)N[C@@H](CCCNC(=N)N)C(=O)Nc1ccc([N+](=O)[O-])cc1)C(C)C.Cl [MZ-Val-Arg-pNA.HCl]
rate of hydrolysis for Factor Xa [5]: 0.03
rate of hydrolysis for thrombin [6]: 0.21
rate of hydrolysis for protein C [7]: 0.12
rate of hydrolysis for plasmin [8]: 0.08

water solubility [9]: restricted water solubility
Compound: CCCC[C@H](NC(=O)[C@@H]1CCCN1C(=O)[C@H](N)Cc1ccccc1)C(=O)Nc1ccc([N+](=O)[O-])cc1.Cl [Substrate 7] (H-[dF]-Pro-[Nle]-pNA)

Compound: COC(=O)CC(=O)N1C[C@H](O)C[C@H]1C(=O)N[C@@H](CCCNC(=N)N)C(=O)Nc1ccc([N+](=O)[O-])cc1 [CH3 O--CO--CH2 --CO-L-4Hyp-L-Arg-pNA]
rate of hydrolysis for Factor Xa [5]: 0.34
rate of hydrolysis for thrombin [6]: 0.61
rate of hydrolysis for protein C [7]: 0.88
rate of hydrolysis for plasmin [8]: 1.12

Factor Xa kcat [1]: 2.84 s⁻¹
Factor Xa kcat /Km [1]: 649 M/s
Km [1]: 4380 µM
Km [2]: 3230 µM
Thrombin kcat [2]: 25.4 s⁻¹
Thrombin kcat /Km [2]: 7880 M/s
Km [3]: 2680 µM
kcat [3]: 3.51 s⁻¹
kcat /Km [3]: 1310 M/s
Km [4]: 1640 µM
kcat [4]: 16.54 s⁻¹
kcat /Km [4]: 10100 M/s
Compound: CC(C)[C@H](NC(=O)CN)C(=O)N[C@@H](CCCNC(=N)N)C(=O)Nc1ccc([N+](=O)[O-])cc1.Cl.Cl [2HCl.H-Gly-Val-Arg-pNA] (H-Gly-Val-Arg-pNA)

Compound: COC(=O)CC(=O)NC(C)(C)C(=O)N[C@@H](CCCNC(=N)N)C(=O)Nc1ccc([N+](=O)[O-])cc1.Cl [MZ-Aib-Arg-pNA.HCl, malonyl-α-aminoisobutyryl-arginine p-nitroanilide methyl ester monohydrochloride]
rate of hydrolysis for Factor Xa [5]: 0.01
Km [10]: 3940 µM
kcat [10]: 2.9 s⁻¹
kcat /Km [10]: 738 M/s
Factor Xa kcat [11]: 2.9 s⁻¹
Factor Xa kcat /Km [11]: 738 M/s
Km [11]: 3940 µM
Km [12]: 830 µM
kcat [12]: 0.46 s⁻¹
kcat /Km [12]: 554 M/s
Km [13]: 830 µM
Thrombin kcat [13]: 0.46 s⁻¹
Thrombin kcat /Km [13]: 554 M/s
rate of hydrolysis for thrombin [6]: 0.04
rate of hydrolysis for protein C [7]: 0.03
rate of hydrolysis for plasmin [8]: 0.02

water solubility [9]: restricted water solubility
Compound: Cl.N=C(N)NCCC[C@H](NC(=O)CNS(=O)(=O)c1ccc2ccccc2c1)C(=O)Nc1ccc([N+](=O)[O-])cc1 [Substrate 25]

Compound: CC(C)[C@H](NC(=O)[C@@H](N)Cc1ccccc1)C(=O)N[C@@H](CCCNC(=N)N)C(=O)Nc1ccc([N+](=O)[O-])cc1 [H-Phe-Val-Arg-p-nitroanilide] (H-Phe-Val-Arg-pNA)
factor by which poorer substrate for thrombin than Benzoyl-Phe-Val-Arg-p-nitroanilide [14]: ≥ 100

Compound: CC(C)[C@H](NC(=O)[C@H](Cc1ccccc1)NC(=O)c1ccccc1)C(=O)N[C@@H](CCCNC(=N)N)C(=O)Nc1ccc([N+](=O)[O-])cc1 [Benzoyl-Phe-Val-Arg-p-nitroanilide] (Bz-Phe-Val-Arg-pNA)
kcat /Km [14]: 90×10^-7 [(NIH units/liter)s]^-1

Compound: CC(C)[C@H](NC(=O)c1ccccc1)C(=O)N[C@@H](CCCNC(=N)N)C(=O)Nc1ccc([N+](=O)[O-])cc1 [benzoyl-Val-Arg-p-nitroanilide] (Bz-Val-Arg-pNA)
factor by which poorer substrate for thrombin than Benzoyl-Phe-Val-Arg-p-nitroanilide [14]: ≥ 100

Compound: CC(=O)NCC(=O)N[C@H](C(=O)N[C@@H](CCCNC(=N)N)C(=O)CCl)C(C)C [Ac-Gly-Val-Arg-CH2 Cl] (Ac-Gly-Val-Arg-CH2Cl)
ki value, times lower than that for D-Phe-Pro-Arg-CH2 Cl [15]: 3×10^4
